Assay results: ChEMBL document CHEMBL6103588, “Promising thiazolidinedione-thiazole based multi-target and neuroprotective hybrids for Alzheimer's disease: Design, synthesis, in-vitro, in-vivo and in-silico studies” (Eur J Med Chem, 2025); call rule not given here

Tests used:
[1] = molecular target: Prostaglandin G/H synthase 1 (Homo sapiens, UniProt P23219); settings: read-out: IC50
Cholinesterase = Cholinesterase (Equus caballus, UniProt P81908); test: Inhibition of equine serum BuChE using butyrylthiocholine iodide as substrate pre-incubated for 10 mins followed by substrate addition and measured after 15 mins by DTNB reagent based Ellman's method
Sequence of Cholinesterase (P81908 whole entry): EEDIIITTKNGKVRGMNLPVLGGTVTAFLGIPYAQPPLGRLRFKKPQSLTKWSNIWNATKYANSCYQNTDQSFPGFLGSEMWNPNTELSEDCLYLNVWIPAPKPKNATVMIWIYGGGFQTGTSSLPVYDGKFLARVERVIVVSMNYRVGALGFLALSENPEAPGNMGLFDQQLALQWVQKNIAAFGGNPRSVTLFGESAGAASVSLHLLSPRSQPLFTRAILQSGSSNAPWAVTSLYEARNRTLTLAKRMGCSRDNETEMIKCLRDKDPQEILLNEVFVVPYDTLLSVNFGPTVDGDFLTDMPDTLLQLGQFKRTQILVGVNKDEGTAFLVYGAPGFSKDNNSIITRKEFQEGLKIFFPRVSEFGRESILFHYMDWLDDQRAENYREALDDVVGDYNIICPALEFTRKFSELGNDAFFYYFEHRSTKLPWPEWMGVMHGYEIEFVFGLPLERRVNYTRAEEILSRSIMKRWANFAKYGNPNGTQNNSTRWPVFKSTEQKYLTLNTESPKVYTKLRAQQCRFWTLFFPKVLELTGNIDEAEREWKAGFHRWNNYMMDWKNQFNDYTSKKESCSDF

[2] = molecular target: T1, Amine oxidase [flavin-containing] A (Homo sapiens, UniProt P21397); test: Inhibition of human MAO-A using tyramine/benzylamine as substrate measured after 30 mins by fluorometric assay; settings: read-out: IC50
T1 sequence (P21397 whole entry): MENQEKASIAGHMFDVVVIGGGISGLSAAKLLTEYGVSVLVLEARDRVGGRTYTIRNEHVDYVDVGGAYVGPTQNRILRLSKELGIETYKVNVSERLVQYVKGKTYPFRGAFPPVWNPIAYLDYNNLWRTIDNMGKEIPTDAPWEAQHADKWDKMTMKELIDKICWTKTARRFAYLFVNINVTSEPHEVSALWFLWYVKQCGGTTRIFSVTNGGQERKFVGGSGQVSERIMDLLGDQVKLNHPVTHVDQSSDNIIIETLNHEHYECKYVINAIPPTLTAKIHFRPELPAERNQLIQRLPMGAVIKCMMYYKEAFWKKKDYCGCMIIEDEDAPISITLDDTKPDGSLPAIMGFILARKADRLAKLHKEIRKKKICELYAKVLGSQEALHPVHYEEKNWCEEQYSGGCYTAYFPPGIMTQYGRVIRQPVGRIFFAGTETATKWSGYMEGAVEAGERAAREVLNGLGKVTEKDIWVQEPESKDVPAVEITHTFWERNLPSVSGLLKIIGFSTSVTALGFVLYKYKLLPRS

[3] = molecular target: T2, Amine oxidase [flavin-containing] B (Homo sapiens, UniProt P27338); test: Inhibition of human MAO-B using tyramine/benzylamine as substrate measured after 30 mins by fluorometric assay
T2 sequence (P27338 whole entry): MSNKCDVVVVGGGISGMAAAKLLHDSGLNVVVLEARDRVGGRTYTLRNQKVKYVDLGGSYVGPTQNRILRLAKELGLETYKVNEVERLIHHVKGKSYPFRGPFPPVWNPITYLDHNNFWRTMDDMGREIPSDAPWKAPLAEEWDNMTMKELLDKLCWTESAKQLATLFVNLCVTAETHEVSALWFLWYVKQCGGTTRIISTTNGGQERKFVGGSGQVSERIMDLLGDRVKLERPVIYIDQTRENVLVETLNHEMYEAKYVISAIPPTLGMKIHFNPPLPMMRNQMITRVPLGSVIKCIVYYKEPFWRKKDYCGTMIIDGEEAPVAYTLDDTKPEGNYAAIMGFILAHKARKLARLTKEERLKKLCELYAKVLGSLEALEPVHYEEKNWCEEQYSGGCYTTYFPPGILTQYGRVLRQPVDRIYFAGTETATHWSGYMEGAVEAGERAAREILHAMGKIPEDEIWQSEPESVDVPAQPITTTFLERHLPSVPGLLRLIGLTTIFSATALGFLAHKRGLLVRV

[4] = molecular target: T3, Prostaglandin G/H synthase 2 (Homo sapiens, UniProt P35354)
T3 sequence (P35354 whole entry): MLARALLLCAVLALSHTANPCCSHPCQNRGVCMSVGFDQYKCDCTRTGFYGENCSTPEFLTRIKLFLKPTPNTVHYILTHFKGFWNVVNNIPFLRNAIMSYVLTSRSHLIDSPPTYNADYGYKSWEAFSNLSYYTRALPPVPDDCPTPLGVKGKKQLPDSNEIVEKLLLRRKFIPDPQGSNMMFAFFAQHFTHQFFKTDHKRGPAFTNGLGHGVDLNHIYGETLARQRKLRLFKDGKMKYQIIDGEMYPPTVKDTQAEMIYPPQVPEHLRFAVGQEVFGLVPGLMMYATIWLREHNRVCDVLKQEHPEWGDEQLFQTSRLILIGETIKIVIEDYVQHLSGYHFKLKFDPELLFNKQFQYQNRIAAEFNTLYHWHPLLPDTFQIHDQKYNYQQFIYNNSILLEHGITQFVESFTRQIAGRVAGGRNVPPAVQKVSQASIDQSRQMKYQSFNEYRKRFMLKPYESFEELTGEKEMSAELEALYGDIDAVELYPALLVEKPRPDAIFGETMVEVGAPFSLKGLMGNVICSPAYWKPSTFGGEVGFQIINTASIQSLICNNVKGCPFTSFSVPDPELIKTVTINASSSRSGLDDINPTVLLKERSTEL
Description: Inhibition of COX-2 (unknown origin) using arachidonic acid as substrate and in presence of TMPD preincubated for 5 mins followed by substrate addition and measured after 5 mins by UV visible spectrophotometric analysis

[5] = molecular target: Acetylcholinesterase (Electrophorus electricus) (UniProt O42275); test: Mixed-type inhibition of electric eel AChE using acetylthiocholine iodide as substrate assessed as decrease in Vmax […] at 0.036 to 0.144 uM preincubated for 15 mins by Lineweaver-burk plot analysis; settings: dose 0.036-0.144 µM
Sequence of Acetylcholinesterase (Electrophorus electricus) (O42275 24-633 limits assumed): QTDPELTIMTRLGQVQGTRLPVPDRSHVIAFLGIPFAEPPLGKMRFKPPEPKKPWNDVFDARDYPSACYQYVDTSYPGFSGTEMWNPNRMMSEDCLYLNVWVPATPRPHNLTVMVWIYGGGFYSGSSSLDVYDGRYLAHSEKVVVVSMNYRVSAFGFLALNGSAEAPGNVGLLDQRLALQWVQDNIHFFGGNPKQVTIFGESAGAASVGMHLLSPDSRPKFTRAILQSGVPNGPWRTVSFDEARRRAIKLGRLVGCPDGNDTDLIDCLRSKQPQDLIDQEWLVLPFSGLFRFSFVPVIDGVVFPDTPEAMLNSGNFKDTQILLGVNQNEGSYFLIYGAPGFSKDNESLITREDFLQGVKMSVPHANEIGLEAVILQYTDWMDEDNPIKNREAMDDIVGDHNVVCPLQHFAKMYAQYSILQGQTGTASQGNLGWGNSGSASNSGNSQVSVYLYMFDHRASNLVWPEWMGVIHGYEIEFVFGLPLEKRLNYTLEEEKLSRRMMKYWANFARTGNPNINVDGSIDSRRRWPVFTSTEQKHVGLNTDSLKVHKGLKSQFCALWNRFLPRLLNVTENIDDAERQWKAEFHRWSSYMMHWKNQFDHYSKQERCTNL

PC-12 = test: Neuroprotective activity against H2O2-induced rat PC12 cells assessed as protection against H2O2-induced oxidative stress by measuring cell viability at 25 uM pretreated for 24 hr followed by H2O2 addition and measured after 24 hrs by MTT reagent based spectrophotometric analysis (reference value: 47.32 %); assay type: functional; settings: time 48 hrs
[6] = Acute toxicity in male Swiss albino mouse assessed as signs of distress at 1500 mg/kg BW, po administered as single dose via gavage measured after 48 hrs by up-and-down method; assay type: organism-based; settings: in vivo
[7] = Acute toxicity in male Swiss albino mouse assessed as signs of pain at 1500 mg/kg BW, po administered as single dose via gavage measured after 48 hrs by up-and-down method; assay type: organism-based; settings: in vivo
[8] = Acute toxicity in male Swiss albino mouse assessed as signs of pain at 1200 mg/kg BW, po administered as single dose via gavage measured after 20 mins by up-and-down method; assay type: organism-based; settings: in vivo
[9] = Acute toxicity in male Swiss albino mouse assessed as lethargy at 1200 mg/kg BW, po administered as single dose via gavage measured after 20 mins by up-and-down method; assay type: organism-based; settings: in vivo
[10] = Acute toxicity in male Swiss albino mouse assessed as lethargy at 450 mg/kg BW, po administered as single dose via gavage measured after 1 hrs by up-and-down method; assay type: organism-based; settings: in vivo
[11] = Acute toxicity in male Swiss albino mouse assessed as survival time at 1500 mg/kg BW, po administered as single dose via gavage by up-and-down method; assay type: organism-based; settings: in vivo
[12] = Acute toxicity in male Swiss albino mouse assessed as survival time at 1200 mg/kg BW, po administered as single dose via gavage by up-and-down method; assay type: organism-based; settings: in vivo
[13] = Acute toxicity in male Swiss albino mouse assessed as survival time at 250 mg/kg BW, po administered as single dose via gavage by up-and-down method; assay type: organism-based; settings: in vivo
[14] = Acute toxicity in male Swiss albino mouse assessed as mortality rate at 900 mg/kg BW, po administered as single dose via gavage measured after 48 hrs by up-and-down method relative to control; assay type: organism-based; settings: in vivo
[15] = Acute toxicity in male Swiss albino mouse assessed as mortality rate at 650 mg/kg BW, po administered as single dose via gavage measured after 48 hrs by up-and-down method relative to control; assay type: organism-based; settings: in vivo
Mus musculus = test: Antioxidant activity against scopolamine-induced Albino mouse assessed as increase in SOD level in brain at 5 mg/kg measured after 24 hrs; assay type: functional
in vitro = settings: PAMPA, pH 7.4
Description: Permeability of compound in PBS at pH 7.4 incubated for 20 hrs by PAMPA-BBB assay

Sequence of Prostaglandin G/H synthase 1 (P23219 whole entry): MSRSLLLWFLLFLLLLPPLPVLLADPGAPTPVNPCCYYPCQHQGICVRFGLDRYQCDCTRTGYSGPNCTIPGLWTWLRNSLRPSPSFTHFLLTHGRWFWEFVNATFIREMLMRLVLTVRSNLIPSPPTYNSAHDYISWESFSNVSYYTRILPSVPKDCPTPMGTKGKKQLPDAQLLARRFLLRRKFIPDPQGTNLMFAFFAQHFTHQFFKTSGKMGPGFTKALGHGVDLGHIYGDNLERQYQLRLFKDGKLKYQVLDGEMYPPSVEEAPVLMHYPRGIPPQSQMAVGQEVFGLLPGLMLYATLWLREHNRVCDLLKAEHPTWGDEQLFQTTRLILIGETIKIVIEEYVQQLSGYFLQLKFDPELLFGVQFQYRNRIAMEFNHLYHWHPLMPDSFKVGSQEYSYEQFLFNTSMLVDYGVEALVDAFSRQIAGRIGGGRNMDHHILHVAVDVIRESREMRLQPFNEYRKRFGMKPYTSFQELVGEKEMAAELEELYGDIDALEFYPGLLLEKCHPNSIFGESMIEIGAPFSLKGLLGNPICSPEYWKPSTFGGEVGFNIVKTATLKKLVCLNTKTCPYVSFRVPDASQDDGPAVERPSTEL

Which IC50 [1] does the source give for COc1cc(/C=C/C(=O)Nc2ccc3sc(NCN4C(=O)CSC4=O)nc3c2)ccc1O here?
The IC50 was 60.4 µM.

And the IC50 (Cholinesterase)?
Its IC50 is 9.81 µM.

And the IC50 [2]?
The IC50 was 14.5 µM.

What about the IC50 [3] of the same compound?
Its IC50 is 0.024 µM.

What about the IC50 [4] of the same compound?
The IC50 was 0.187 µM.

What about the inhibition [5] of the same compound?
The inhibition was “Active; Inhibition Of Free Enzyme And Enzyme-Substrate Complex”.

What about the Activity (PC-12) of the same compound?
The Activity was 83.01%.

And the Activity [6]?
Its Activity is “Toxic”.

What about the Activity [7] of the same compound?
The Activity was “Toxic”.

And the Activity [8]?
The Activity was “Toxic”.

What about the Activity [9] of the same compound?
The Activity was “Toxic”.

What about the Activity [10] of the same compound?
The Activity was “Toxic”.

And the Time [11]?
The Time was 15 min.

What about the Time [12] of the same compound?
Its Time is 40 min.

And the Time [13]?
Its Time is > 48 h.

What about the mortality at 48 h [14] of the same compound?
Its mortality at 48 h is 66.7%.

And the mortality at 48 h [15]?
Its mortality at 48 h is 28.6%.

And the Activity (Mus musculus)?
Its Activity is 95.03 U/ml.

What about the Papp at 20 h (in vitro) of the same compound?
Its Papp at 20 h is 5.7 ×10⁻⁶ cm/s.
